# What was measured:
# [1] = molecular target: T1, porcine pancreatic lipase (Sus scrofa, UniProt P00591); test: Activation of ester hydrolase in the vinyl ester reagent system (ADH/NADH coupled, 340 nm); format: biochemical; conditions: for activation of porcine pancreatic lipase by bile salt: vinyl omega-phenyl octanoate as substrate, sodium taurodeoxycholate zero to 25 mM, sodium cholate zero to 10 mM, sodium chenodeoxycholate zero to 15 mM; for activation of porcine pancreatic lipase by quaternary ammonium compound: in the absence of bile salts
# T1 sequence (P00591 1-450): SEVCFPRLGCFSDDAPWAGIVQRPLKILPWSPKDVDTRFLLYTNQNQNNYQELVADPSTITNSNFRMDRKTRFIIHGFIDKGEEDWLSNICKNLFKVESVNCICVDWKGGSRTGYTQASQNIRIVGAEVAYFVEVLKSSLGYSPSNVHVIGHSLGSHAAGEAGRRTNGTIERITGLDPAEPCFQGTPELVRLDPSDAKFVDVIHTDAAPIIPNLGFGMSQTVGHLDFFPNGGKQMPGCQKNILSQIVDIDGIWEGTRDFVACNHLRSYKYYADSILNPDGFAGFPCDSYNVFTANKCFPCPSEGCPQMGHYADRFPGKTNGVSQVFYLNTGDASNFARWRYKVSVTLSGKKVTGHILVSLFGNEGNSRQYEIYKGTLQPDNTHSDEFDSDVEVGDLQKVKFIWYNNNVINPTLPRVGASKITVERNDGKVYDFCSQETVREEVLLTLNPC
# Description: (§1) In accordance with the preferred embodiments of this invention, we prefer to carry out the analysis of carboxylic acid ester hydrolase by admixing an unknown, suspected of containing this enzyme with a reagent system wherein first a vinyl ester of a carboxylic acid is hydrolyzed by the enzyme into the carboxylic acid and unstable vinyl alcohol. As a second step, the vinyl alcohol isomerizes to acetaldehyde. This sequence of conversions is indicated diagrammatically as follows: [drawing 1] The acetaldehyde of reaction (2) may be detected by a variety of means known to the prior art. For example, enzymatic methods are illustrated below in reactions (3a) and (3b), and involve monitoring the disappearance (3a) or appearance (3b) of NADH by measuring its absorbance or fluorescence at suitable wavelengths. The velocity of reactions (3a) or (3b) may then be equated with reaction (1) when the components of the mixture are all in sufficient excess so that only the ester hydrolase activity is limiting. Chemical methods (3c) may include any nonenzymatic means for the quantitative analysis of acetaldehyde. [formula]
# (§2) The range of concentrations of sodium deoxycholate (or its free acid) is from zero to about 25 mM, but the preferred range is about 15 to 21 mM for porcine pancreatic lipase, crude human pancreas extract, and lipase in human blood serum.
# Activation of porcine pancreatic lipase and crude human pancreas extract can also be accomplished with various cationic alkyl and alkyl-aryl quaternary ammonium compounds such as cetyltrimethyl ammonium bromide (CTAB) and cetyldimethylbenzyl ammonium chloride (CDMBAC) in the absence of bile salts. The useful range of CTAB concentrations for activation of porcine pancreatic lipase is from about 4 to 12 mM, but most preferred is from 7 to 9 mM. The useful range of CDMBAC concentrations for activation of porcine pancreatic lipase is from about 2 to 9 mM, but most preferred is about 5 to 9 mM. When used together sodium deoxycholate (or its acid) and either CTAB or CDMBAC activate porcine pancreatic lipase about 10 fold over the activity without these components together. Sodium deoxycholate and CTAB are useful when used together in the ranges of zero to 25 mM and zero to 15 mM, respectively, but the preferred concentrations are 10 mM to 20 mM sodium deoxycholate and 4 mM to 10 mM CTAB. When deoxycholate and CDMBAC are used together for the activation of porcine pancreatic lipase the useful concentrations of deoxycholate are from zero to about 20 mM, but the preferred concentrations are 10 mM to 20 mM deoxycholate and 10 mM to 15 mM CDMBAC.
# (2) Buffer Solution. While the method of preparation of the buffer solution is not critical, one method for forming it is as follows: Weigh into a one liter beaker 3.134 gm 1, 1, 3, 3-tetramethyl-1-phenoxy (polyethoxy) butane (n=polydisperse, average 9) and 12.912 gm 1, 1, 3, 3-tetramethyl-1-phenoxy(polyethoxy)n butane, 70% (n=polydisperse, average 30). Add about 800 ml of deionized or glass redistilled water and stir with a magnetic stirring bar until the detergents are dissolved. Add 9.534 gm sodium deoxycholate and continue stirring until dissolved. Then add 25.652 gm tetrasodium pyrophosphate (Na4 P2 O7.10 H2 O) and stir until the crystals dissolve. Add with stirring in approximately five equal portions a total of 231.51 gm of potassium chloride, allowing each portion to almost completely dissolve before adding the next. Stop the stirring when all of the KCl has dissolved. […]
# porcine liver esterase = test: as above; format: biochemical; conditions: for activation of porcine liver esterase by bile salt: vinyl omega-phenyl octanoate as substrate, sodium taurodeoxycholate zero to 25 mM, sodium cholate zero to 10 mM, sodium chenodeoxycholate zero to 15 mM
# Description: as §1, §2
# (2) Buffer Solution. While the method of preparation of the buffer solution is not critical, one method for forming it is as follows: Weigh into a one liter beaker 3.134 gm 1, 1, 3, 3-tetramethyl-1-phenoxy (polyethoxy) butane (n=polydisperse, average 9) and 12.912 gm 1, 1, 3, 3-tetramethyl-1-phenoxy(polyethoxy)n butane, 70% (n=polydisperse, average 30). Add about 800 ml of deionized or glass redistilled water and stir with a magnetic stirring bar until the detergents are dissolved. Add 9.534 gm sodium deoxycholate and continue stirring until dissolved. Then add 25.652 gm tetrasodium pyrophosphate (Na4 P2 O7.10 H2 O) and stir until the crystals dissolve. Add with stirring in approximately five equal portions a total of 231.51 gm of potassium chloride, allowing each portion to almost completely dissolve before adding the next. Stop the stirring when all of the KCl has dissolved. Add 1.15 gm bovine serum albumin by sprinkling on the liquid surface. When all of the BSA has dissolved, begin stirring again and add more water to bring the volume up to about 950 ml. Adjust the pH to 9.1 with dilute HCl solution. […] Quantitatively transfer the solution to a one liter volumetric flask and add water to the mark. […] After any endogenous acetaldehyde in the reagent has been reduced and the corresponding oxidation of NADH has slowed to the normal blank rate, the absorbance at 340 nm in a 1 cm light path will be approximately 1.5. […]
# [2] = molecular target: T2, crude human pancreas extract (human lipase) (Homo sapiens, UniProt P16233); test: as above; format: biochemical; conditions: for activation of crude human pancreas extract by quaternary ammonium compound: in the absence of bile salts
# T2 construct: vinyl ester hydrolysis coupled to ADH/NADH
# T2 sequence (P16233 17-465): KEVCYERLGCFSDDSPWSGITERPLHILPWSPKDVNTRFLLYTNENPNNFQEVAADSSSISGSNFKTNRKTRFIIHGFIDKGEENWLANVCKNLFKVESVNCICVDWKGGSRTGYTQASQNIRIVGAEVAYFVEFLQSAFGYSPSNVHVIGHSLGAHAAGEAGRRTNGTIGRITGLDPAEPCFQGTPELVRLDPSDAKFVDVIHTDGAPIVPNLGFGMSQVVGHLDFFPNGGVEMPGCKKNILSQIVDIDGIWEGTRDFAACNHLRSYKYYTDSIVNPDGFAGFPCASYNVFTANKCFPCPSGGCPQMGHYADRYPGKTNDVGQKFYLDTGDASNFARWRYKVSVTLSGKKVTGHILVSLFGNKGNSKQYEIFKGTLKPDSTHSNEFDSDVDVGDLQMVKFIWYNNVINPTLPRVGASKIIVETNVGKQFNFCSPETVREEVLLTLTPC
# Description: As a second step, the vinyl alcohol isomerizes to acetaldehyde. […] The acetaldehyde of reaction (2) may be detected by a variety of means known to the prior art. For example, enzymatic methods are illustrated below in reactions (3a) and (3b), and involve monitoring the disappearance (3a) or appearance (3b) of NADH by measuring its absorbance or fluorescence at suitable wavelengths. The velocity of reactions (3a) or (3b) may then be equated with reaction (1) when the components of the mixture are all in sufficient excess so that only the ester hydrolase activity is limiting. Chemical methods (3c) may include any nonenzymatic means for the quantitative analysis of acetaldehyde.
# The useful range of CTAB concentrations for activation of porcine pancreatic lipase is from about 4 to 12 mM, but most preferred is from 7 to 9 mM. The useful range of CDMBAC concentrations for activation of porcine pancreatic lipase is from about 2 to 9 mM, but most preferred is about 5 to 9 mM. […] Sodium deoxycholate and CTAB are useful when used together in the ranges of zero to 25 mM and zero to 15 mM, respectively, but the preferred concentrations are 10 mM to 20 mM sodium deoxycholate and 4 mM to 10 mM CTAB. When deoxycholate and CDMBAC are used together for the activation of porcine pancreatic lipase the useful concentrations of deoxycholate are from zero to about 20 mM, but the preferred concentrations are 10 mM to 20 mM deoxycholate and 10 mM to 15 mM CDMBAC.
# (2) Buffer Solution. While the method of preparation of the buffer solution is not critical, one method for forming it is as follows: Weigh into a one liter beaker 3.134 gm 1, 1, 3, 3-tetramethyl-1-phenoxy (polyethoxy) butane (n=polydisperse, average 9) and 12.912 gm 1, 1, 3, 3-tetramethyl-1-phenoxy(polyethoxy)n butane, 70% (n=polydisperse, average 30). Add about 800 ml of deionized or glass redistilled water and stir with a magnetic stirring bar until the detergents are dissolved. […] Quantitatively transfer the solution to a one liter volumetric flask and add water to the mark. […]
# [3] = molecular target: T1, porcine pancreatic lipase; conditions: same conditions as glycerol trioleate; cited from earlier work
smiles,measurement,setting,value
"C[C@H](CCC(=O)NCCS(=O)(=O)O)[C@H]1CC[C@H]2[C@@H]3CC[C@@H]4C[C@H](O)CC[C@]4(C)[C@H]3C[C@H](O)[C@]12C [Sodium taurodeoxycholate, sodium taurodeoxycholate]",activation of porcine pancreatic lipase by bile salt,[1],slightly activate
same,activation of porcine liver esterase by bile salt,porcine liver esterase,slightly activate
C[C@H](CCC(=O)O)[C@H]1CC[C@H]2[C@@H]3[C@H](O)C[C@@H]4C[C@H](O)CC[C@]4(C)[C@H]3C[C@H](O)[C@]12C [sodium cholate],activation of porcine pancreatic lipase by bile salt,[1],slightly activate
same,activation of porcine liver esterase by bile salt,porcine liver esterase,slightly activate
C[C@H](CCC(=O)O)[C@H]1CC[C@H]2[C@@H]3[C@H](O)C[C@@H]4C[C@H](O)CC[C@]4(C)[C@H]3CC[C@]12C [sodium chenodeoxycholate],activation of porcine pancreatic lipase by bile salt,[1],slightly activate
same,activation of porcine liver esterase by bile salt,porcine liver esterase,slightly activate
"CCCCCCCCCCCCCCCC[N+](C)(C)Cc1ccccc1.[Cl-] [CDMBAC, cetyldimethylbenzyl ammonium chloride]",activation of porcine pancreatic lipase by quaternary ammonium compound,[1],Activation
same,activation of crude human pancreas extract by quaternary ammonium compound,[2],Activation
C[C@H](CCC(=O)O)[C@H]1CC[C@H]2[C@@H]3CC[C@@H]4C[C@H](O)CC[C@]4(C)[C@H]3C[C@H](O)[C@]12C [sodium deoxycholate],activation of porcine liver esterase by sodium deoxycholate,porcine liver esterase; concentrations up to about 25 mM,only slightly activated
same,activation of human lipase by deoxycholate alone compared with the combination with CDMBAC,"[2]; deoxycholate concentration about above 4 mM, in the absence of CDMBAC",activated to a much greater extent
C=COC(=O)CCCCCCC/C=C\CCCCCCCC [vinyl oleate],effectiveness as substrate relative to glycerol trioleate,[3],29.4%
"CCCCCCCCCCCCCCCC[N+](C)(C)C.[Br-] [CTAB, cetyltrimethyl ammonium bromide]",activation of porcine pancreatic lipase by quaternary ammonium compound,[1],Activation
same,activation of crude human pancreas extract by quaternary ammonium compound,[2],Activation

# From US4212939A, “Substrate solution for carboxylic ester hydrolase determination” (The University of Alabama, priority 1977, dated 1980)
